Drawing on US5474996A, “Pyrimidine derivatives” (Roussel Uclaf, priority 1991, dated 1995), this text covers IC50 for one molecule.

The assay addresses T1, Angiotensin II Receptor (Rattus norvegicus, UniProt P25095).
T1 construct: A fresh membrane preparation obtained from rat's liver was used; from tissue; host or cells: rat liver, fresh membrane preparation
T1 sequence (P25095 1-359): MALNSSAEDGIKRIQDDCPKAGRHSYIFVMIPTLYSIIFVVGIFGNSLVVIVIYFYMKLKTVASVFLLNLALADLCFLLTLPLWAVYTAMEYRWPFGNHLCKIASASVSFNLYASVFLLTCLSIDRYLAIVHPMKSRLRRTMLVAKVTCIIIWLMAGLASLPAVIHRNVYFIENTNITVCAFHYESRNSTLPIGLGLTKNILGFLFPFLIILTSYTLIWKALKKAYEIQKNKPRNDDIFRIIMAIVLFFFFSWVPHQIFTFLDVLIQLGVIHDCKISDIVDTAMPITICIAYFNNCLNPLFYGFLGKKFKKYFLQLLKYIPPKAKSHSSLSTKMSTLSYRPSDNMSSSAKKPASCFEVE
Kind of assay: Test on the Angiotensin II Receptor: displacement of 125I angiotensin II from a fresh rat liver membrane preparation. Type of assay: binding. To be noted: rat liver membranes; 125I angiotensin II (25,000 DPM/tube); Tris buffer pH 7.4; 25° C. for 150 minutes; 7 concentrations; read-out: 50% inhibiting concentration (IC50), concentration necessary to displace 50% of the radioactivity specifically fixed on the receptor. Here is the method:
A fresh membrane preparation obtained from rat's liver was used and the tissue was ground in a polytron in a Tris 50mMpH 7.4 buffer. The grinding was followed by 3 centrifugations at 30,000 g for 15 minutes with intermediate collection of pellets in the Tris buffer pH 7.4. The last pellets were suspended in an incubation buffer (Tris 20 mM, NaCl […], KCl 10 mM, glucose 5 mM, MgCl2 10 mM, PMSF 0.3 mM, bacitracin 0.1 mM, BSA 0.2%). The 2 ml of aliquoted fractions were distributed in hemolysis tubes and ^125 I angiotensin II (25,000 DPM/tube) and the product to be studied were added. The product was first tested at 3×10^-5 M in triplicate. When the product to be tested displaced more than 50% of the radioactivity specifically linked to the receptor, it was tested again in a range of 7 concentrations to determine the concentration which inhibited 50% of the radioactivity specifically linked to the receptor. In this way, the 50% inhibiting concentration was determined.
The non-specific bond was determined by the addition of the product of Example 94 of the European Patent No. 0,253,310, at 10^-5 M (in triplicate). Incubation took place at 25° C. for 150 minutes, followed by returning to a water bath at 0° C. for 5 minutes, vacuum filtration, rinsing with Tris buffer pH 7.4 and counting the radioactivity in the presence of scintilling Triton. […]
In general terms: Displacement assays read how much labelled ligand stays bound in the presence of the test substance.

Turning to `CCCCc1nc(Cl)c(CC(=O)O)c(Cc2ccc(-c3ccccc3C(=O)O)cc2)n1` [Example 8, 2-butyl-4-[(2'-carboxy-(1,1'-biphenyl)-4-yl)-methyl)-6-chloro-5-pyrimidineacetic acid], the IC50 is 242 nM.
